Measurements: patent publication EP0551200A1, “Protein phosphatase inhibitors for use in therapy” (priority 1992, dated 1993)

System: c-abl
Assay: Phosphorylation of cdc2 kinase substrate c-abl, immunoprecipitation
Type: cell-based, human
Conditions: 50 units/ml TNF or 100 nM OA
Procedure: Where c-abl (top panel) or p53 (bottom panel) phosphorylation was measured, cells were treated for the times indicated with 50 units/ml TNF or 100 nM OA. Where RB (middle panel) phosphorylation was measured, cells were treated for 15 min with the indicated doses of TNF (in units/ml) or OA (in nM). Cell lysates were immunoprecipitated with antibodies to either c-abl, RB, or p53 (from Oncogene Science). The immunoprecipitated proteins were subjected to 6 or 10% SDS-PAGE and autoradiography. Note that in the middle panel, the lesser extent of RB phosphorylation observed with 500 nM OA as compared to 100 nM OA is due to the loading of about four times less amount of protein in the 500 nM OA than the 100 nM OA-treated sample to the gel. At either concentration of OA, the ratio of the hyperphosphorylated form of RB is higher than the hypophosphorylated form of RB.
Phosphorylation of cdc2 Kinase Substrates in Cells Treated with IL-1, TNF, or Okadaic Acid - It is noted from Fig. 1 (e and f) that the phosphorylation of myosin light chain and nucleolin are enhanced by TNF and okadaic acid treatment. Both proteins are known to be substrates of cdc2 kinase. In this connection, a question was raised as to whether other cdc2 kinase substrates which are known to be phosphorylated by okadaic acid treatment are also effected in TNF-treated human fibroblasts. […]

Compound: C=C1[C@@H](O)[C@@H]2O[C@]3(CC[C@H](/C=C/[C@@H](C)[C@@H]4CC(C)=C[C@@]5(O[C@H](C[C@@](C)(O)C(=O)O)CC[C@H]5O)O4)O3)CC[C@H]2O[C@@H]1[C@@H](O)C[C@H](C)[C@H]1O[C@@]2(CCCCO2)CC[C@H]1C [okadaic acid]
- phosphorylation of c-abl (in words): enhanced the phosphorylation
